# Test results: patent publication EP0192611A2, “Acylated hexose derivatives and method for their preparation” (CIBA-GEIGY AG, priority 1985, dated 1986)
# Tested on: Influenza-Viren
# Experiment: Own studies: prophylaxis and therapy of virus infection in mice infected with influenza viruses
# Type: in vivo, Mäuse
# Settings: per se, without admixed vaccine
# Text: Aus der Französischen Patentanmeldung Nr. 74 22 909 mit der Publikationsnummer 2 292 486 sind Huramylpeptide vom Typ der Verbindung N-Acetyl-muramyl-L-alanyl-D-isoglutamin ("MDP") bekannt. Diese Verbindungen sind als immunologische Adjuvanzien beschrieben, d.h. sie können in Mischung mit Impfstoffen dazu benützt werden, den Impferfolg zu verbessern. Eigene Untersuchungen, z.B. bei mit Influenza-Viren infizierten Mäusen, haben ergeben, dass N-Acetyl-muramyl-L-alanyl-D-isoglutamin per se, d.h. ohne Beimengung von Impfstoffen, bei der Prophylaxe und Therapie von Virusinfektionen unwirksam ist. Auch ist die Verwendbarkeit strukturell einfacher Muramylpeptide und ihrer Analogen gegen Virusinfektionen bisher nicht beschrieben.
structure (smiles),measurement,value
CC(=O)N[C@H]1C(O)O[C@H](CO)[C@@H](O)[C@@H]1O[C@H](C)C(=O)N[C@@H](C)C(=O)N[C@H](CCC(=O)O)C(N)=O (stereo partly drawn) [N-Acetyl-muramyl-L-alanyl-D-isoglutamin],Wirksamkeit bei der Prophylaxe und Therapie von Virusinfektionen,unwirksam
